Test results from patent US8158811B2, “Unsaturated fatty hydroxy acid derivatives and the dermocosmetologic use thereof” (Pierre Fabre Dermo-Cosmetique, priority 2005, dated 2012).

Tested on: ABCG1
Experiment: keratinocyte differentiation, real-time RT-PCR of ABCG1 transcripts
Format: cell-based, human
Conditions: 1 μg/ml, NHK, 48 hours
Procedure: (§1) Normal human keratinocytes (NHK) proliferate and differentiate in vitro, forming stratified layers which mimic the basal organisation of the skin. Extracellular calcium concentrations in excess of 0.1 mM initiate a cascade of genome and non-genome events which take the keratinocytes from a proliferative phase towards a differentiation phase. Keratinocyte differentiation can then be evaluated by studying the expression of several markers such as keratins 1 and 10, transglutaminase 1, desaturase DES2, involucrine, FATP4 and ABCG1 transporters. We therefore evaluated the effect of certain hydroxyalcene carboxylic acids in an in vitro culture model.
(§2) Normal human keratinocytes are isolated from skin explants. They are cultured in KSFM medium (Gibco) with a low calcium content (0.1 mM) containing 25 μg/ml of BPE (bovine pituitary extract) and […] of EGF (epithelium growth factor). 24 hours after culturing, differentiation is triggered by the addition of calcium (final concentration 1.2 mM). The active ingredients are added or not at the same time as calcium at concentrations of 100 and 1 μg/ml in order to determine whether or not they have a potentialising effect on differentiation. Cells were then analysed 48 hours after the addition of calcium and these products.
(§3) Total RNA was extracted under cold conditions from keratinocytes.
(§4) After reverse transcription of mRNA into cDNA, PCRs were made up in 96 well plates (iCycler quantitative PCR apparatus, BioRad). Expression of transcripts of transglutaminase, desaturase (DES2), ABCG1 and FATP4 were standardized with respect to the expression of reference genes (GAPDH, UBC, HPRT).

| Compound | Induction Factor vs Control (CaCl2 1.2 mM) ABCG1 |
| --- | --- |
| O=C(O)C(F)=CCCCCCO (mixture of isomers) [n=4, R=H, Rn=H, R1=F] | 2.6 |
| O=C(O)C=CCCCCO [n=3, R=H, Rn=H, R1=H] | 1.5 |
| O=C(O)C=CCCCCCO [n=4, R=H, Rn=H, R1=H] | 1.2 |
| O=C(O)/C=C/CCCCCCCCCCO [n=9, R=H, Rn=H, R1=H, 13-hydroxy-tridec-2t-enoic acid] | 1.5 |
| O=C(O)C(F)=CCCCCCCCCCCCO [n=10, R=H, Rn=H, R1=F, 14-hydroxy-tetradec-2-fluoro-2-enoic acid] | 1.4 |
| O=C(O)/C=C/CCCCCCCCCCCO [n=10, R=H, Rn=H, R1=H, 14-hydroxy-tetradec-2t-enoic acid] | 1.4 |
| O=C(O)C(F)=CCCCCCCCCCCCCCCO [n=13, R=H, Rn=H, R1=F, 17-hydroxy-heptadec-2-fluoro-2-enoic acid] | 4.8 |
| O=C(O)/C=C/CCCCCCCCCCCCCCO [n=13, R=H, Rn=H, R1=H, 17-hydroxy-heptadec-2t-enoic acid] | 3.0 |

Same assay, conditions: 100 μg/ml, NHK, 48 hours

| Compound | Induction Factor vs Control (CaCl2 1.2 mM) ABCG1 |
| --- | --- |
| O=C(O)C(F)=CCCCCCO (mixture of isomers) [n=4, R=H, Rn=H, R1=F] | 2.6 |
| O=C(O)C=CCCCCO [n=3, R=H, Rn=H, R1=H] | 4.0 |
| O=C(O)C=CCCCCCO [n=4, R=H, Rn=H, R1=H] | 2.5 |
| O=C(O)/C=C/CCCCCCCCCCO [n=9, R=H, Rn=H, R1=H, 13-hydroxy-tridec-2t-enoic acid] | 13.8 |
| O=C(O)C(F)=CCCCCCCCCCCCO [n=10, R=H, Rn=H, R1=F, 14-hydroxy-tetradec-2-fluoro-2-enoic acid] | 4.6 |
| O=C(O)/C=C/CCCCCCCCCCCO [n=10, R=H, Rn=H, R1=H, 14-hydroxy-tetradec-2t-enoic acid] | 25.5 |

Tested on: Interleukin 8
Experiment: release of Interleukin 8 by keratinocytes NHK stimulated with PMA + calcium ionophore A23187 (ELISA)
Format: cell-based, human
Conditions: IL8 release

| Compound | ED50 [mg/L] |
| --- | --- |
| O=C(O)C(F)=CCCCCCCCCCCCCCCO [n=13, R=H, Rn=H, R1=F, 17-hydroxy-heptadec-2-fluoro-2-enoic acid] | <3 |
| O=C(O)/C=C/CCCCCCCCCCCCCCO [n=13, R=H, Rn=H, R1=H, 17-hydroxy-heptadec-2t-enoic acid] | <3 |

Tested on: transglutaminase 1 (TG1)
Experiment: keratinocyte differentiation, real-time RT-PCR of transglutaminase 1 transcripts
Format: cell-based, human
Conditions: 1 μg/ml, NHK, 48 hours
Procedure: as §1, §2, §3, §4

| Compound | Induction Factor vs Control (CaCl2 1.2 mM) TG1 |
| --- | --- |
| O=C(O)C(F)=CCCCCCO (mixture of isomers) [n=4, R=H, Rn=H, R1=F] | 1.6 |
| O=C(O)C=CCCCCO [n=3, R=H, Rn=H, R1=H] | 1.2 |
| O=C(O)C=CCCCCCO [n=4, R=H, Rn=H, R1=H] | 1.2 |
| O=C(O)/C=C/CCCCCCCCCCO [n=9, R=H, Rn=H, R1=H, 13-hydroxy-tridec-2t-enoic acid] | 1.4 |
| O=C(O)C(F)=CCCCCCCCCCCCO [n=10, R=H, Rn=H, R1=F, 14-hydroxy-tetradec-2-fluoro-2-enoic acid] | 1.4 |
| O=C(O)/C=C/CCCCCCCCCCCO [n=10, R=H, Rn=H, R1=H, 14-hydroxy-tetradec-2t-enoic acid] | 1.5 |
| O=C(O)C(F)=CCCCCCCCCCCCCCCO [n=13, R=H, Rn=H, R1=F, 17-hydroxy-heptadec-2-fluoro-2-enoic acid] | 4.2 |
| O=C(O)/C=C/CCCCCCCCCCCCCCO [n=13, R=H, Rn=H, R1=H, 17-hydroxy-heptadec-2t-enoic acid] | 1.4 |

Same assay, conditions: 100 μg/ml, NHK, 48 hours

| Compound | Induction Factor vs Control (CaCl2 1.2 mM) TG1 |
| --- | --- |
| O=C(O)C(F)=CCCCCCO (mixture of isomers) [n=4, R=H, Rn=H, R1=F] | 1.7 |
| O=C(O)C=CCCCCO [n=3, R=H, Rn=H, R1=H] | 2.6 |
| O=C(O)C=CCCCCCO [n=4, R=H, Rn=H, R1=H] | 1.7 |
| O=C(O)/C=C/CCCCCCCCCCO [n=9, R=H, Rn=H, R1=H, 13-hydroxy-tridec-2t-enoic acid] | 14.8 |
| O=C(O)C(F)=CCCCCCCCCCCCO [n=10, R=H, Rn=H, R1=F, 14-hydroxy-tetradec-2-fluoro-2-enoic acid] | 3.5 |
| O=C(O)/C=C/CCCCCCCCCCCO [n=10, R=H, Rn=H, R1=H, 14-hydroxy-tetradec-2t-enoic acid] | 31.4 |

Tested on: FATP4
Experiment: keratinocyte differentiation, real-time RT-PCR of FATP4 transcripts
Format: cell-based, human
Conditions: 1 μg/ml, NHK, 48 hours
Procedure: as §1, §2, §3, §4

| Compound | Induction Factor vs Control (CaCl2 1.2 mM) FATP4 |
| --- | --- |
| O=C(O)C(F)=CCCCCCO (mixture of isomers) [n=4, R=H, Rn=H, R1=F] | 1.3 |
| O=C(O)C=CCCCCO [n=3, R=H, Rn=H, R1=H] | 1.4 |
| O=C(O)C=CCCCCCO [n=4, R=H, Rn=H, R1=H] | 1.0 |
| O=C(O)/C=C/CCCCCCCCCCO [n=9, R=H, Rn=H, R1=H, 13-hydroxy-tridec-2t-enoic acid] | 1.2 |
| O=C(O)C(F)=CCCCCCCCCCCCO [n=10, R=H, Rn=H, R1=F, 14-hydroxy-tetradec-2-fluoro-2-enoic acid] | 1.0 |
| O=C(O)/C=C/CCCCCCCCCCCO [n=10, R=H, Rn=H, R1=H, 14-hydroxy-tetradec-2t-enoic acid] | 1.2 |
| O=C(O)C(F)=CCCCCCCCCCCCCCCO [n=13, R=H, Rn=H, R1=F, 17-hydroxy-heptadec-2-fluoro-2-enoic acid] | 2.2 |
| O=C(O)/C=C/CCCCCCCCCCCCCCO [n=13, R=H, Rn=H, R1=H, 17-hydroxy-heptadec-2t-enoic acid] | 1.4 |

Same assay, conditions: 100 μg/ml, NHK, 48 hours

| Compound | Induction Factor vs Control (CaCl2 1.2 mM) FATP4 |
| --- | --- |
| O=C(O)C(F)=CCCCCCO (mixture of isomers) [n=4, R=H, Rn=H, R1=F] | 1.4 |
| O=C(O)C=CCCCCO [n=3, R=H, Rn=H, R1=H] | 1.2 |
| O=C(O)C=CCCCCCO [n=4, R=H, Rn=H, R1=H] | 1.4 |
| O=C(O)/C=C/CCCCCCCCCCO [n=9, R=H, Rn=H, R1=H, 13-hydroxy-tridec-2t-enoic acid] | 4.5 |
| O=C(O)C(F)=CCCCCCCCCCCCO [n=10, R=H, Rn=H, R1=F, 14-hydroxy-tetradec-2-fluoro-2-enoic acid] | 2.3 |
| O=C(O)/C=C/CCCCCCCCCCCO [n=10, R=H, Rn=H, R1=H, 14-hydroxy-tetradec-2t-enoic acid] | 5.9 |

Tested on: intracellular AOSs, fibroblast line L929
Experiment: in vitro assay of intracellular AOSs (H2DCF-DA probe) after H2O2/iron oxidative stress
Format: cell-based, murin
Conditions: 0.02 ng/ml, pre-incubation 3 h, L929

| Compound | Percentage inhibition of the intracellular production of AOS [%] |
| --- | --- |
| O=C(O)C(F)=CCCCCCO (mixture of isomers) [n=4, R=H, Rn=H, R1=F] | 10 |
| O=C(O)C=CCCCCO [n=3, R=H, Rn=H, R1=H] | 21 |
| O=C(O)C=CCCCCCO [n=4, R=H, Rn=H, R1=H] | 17 |
| O=C(O)/C=C/CCCCCCCCCCO [n=9, R=H, Rn=H, R1=H, 13-hydroxy-tridec-2t-enoic acid] | 9 |
| O=C(O)C(F)=CCCCCCCCCCCCO [n=10, R=H, Rn=H, R1=F, 14-hydroxy-tetradec-2-fluoro-2-enoic acid] | 29 |
| O=C(O)/C=C/CCCCCCCCCCCO [n=10, R=H, Rn=H, R1=H, 14-hydroxy-tetradec-2t-enoic acid] | 11 |
| O=C(O)C(F)=CCCCCCCCCCCCCCCO [n=13, R=H, Rn=H, R1=F, 17-hydroxy-heptadec-2-fluoro-2-enoic acid] | 36 |
| O=C(O)/C=C/CCCCCCCCCCCCCCO [n=13, R=H, Rn=H, R1=H, 17-hydroxy-heptadec-2t-enoic acid] | 3 |

Same assay, conditions: 0.2 ng/ml, pre-incubation 3 h, L929

| Compound | Percentage inhibition of the intracellular production of AOS [%] |
| --- | --- |
| O=C(O)C(F)=CCCCCCO (mixture of isomers) [n=4, R=H, Rn=H, R1=F] | 6 |
| O=C(O)C=CCCCCO [n=3, R=H, Rn=H, R1=H] | 15 |
| O=C(O)C=CCCCCCO [n=4, R=H, Rn=H, R1=H] | 9 |
| O=C(O)/C=C/CCCCCCCCCCO [n=9, R=H, Rn=H, R1=H, 13-hydroxy-tridec-2t-enoic acid] | 10 |
| O=C(O)C(F)=CCCCCCCCCCCCO [n=10, R=H, Rn=H, R1=F, 14-hydroxy-tetradec-2-fluoro-2-enoic acid] | 16 |
| O=C(O)/C=C/CCCCCCCCCCCO [n=10, R=H, Rn=H, R1=H, 14-hydroxy-tetradec-2t-enoic acid] | 4 |
| O=C(O)C(F)=CCCCCCCCCCCCCCCO [n=13, R=H, Rn=H, R1=F, 17-hydroxy-heptadec-2-fluoro-2-enoic acid] | 28 |
| O=C(O)/C=C/CCCCCCCCCCCCCCO [n=13, R=H, Rn=H, R1=H, 17-hydroxy-heptadec-2t-enoic acid] | 13 |

Same assay, conditions: 2 ng/ml, pre-incubation 3 h, L929

| Compound | Percentage inhibition of the intracellular production of AOS [%] |
| --- | --- |
| O=C(O)C(F)=CCCCCCO (mixture of isomers) [n=4, R=H, Rn=H, R1=F] | −4 |
| O=C(O)C=CCCCCO [n=3, R=H, Rn=H, R1=H] | 11 |
| O=C(O)C=CCCCCCO [n=4, R=H, Rn=H, R1=H] | 9 |
| O=C(O)/C=C/CCCCCCCCCCO [n=9, R=H, Rn=H, R1=H, 13-hydroxy-tridec-2t-enoic acid] | 6 |
| O=C(O)C(F)=CCCCCCCCCCCCO [n=10, R=H, Rn=H, R1=F, 14-hydroxy-tetradec-2-fluoro-2-enoic acid] | 0 |
| O=C(O)/C=C/CCCCCCCCCCCO [n=10, R=H, Rn=H, R1=H, 14-hydroxy-tetradec-2t-enoic acid] | −20 |
| O=C(O)C(F)=CCCCCCCCCCCCCCCO [n=13, R=H, Rn=H, R1=F, 17-hydroxy-heptadec-2-fluoro-2-enoic acid] | 14 |
| O=C(O)/C=C/CCCCCCCCCCCCCCO [n=13, R=H, Rn=H, R1=H, 17-hydroxy-heptadec-2t-enoic acid] | −1 |

Same assay, conditions: 20 ng/ml, pre-incubation 3 h, L929

| Compound | Percentage inhibition of the intracellular production of AOS [%] |
| --- | --- |
| O=C(O)C(F)=CCCCCCO (mixture of isomers) [n=4, R=H, Rn=H, R1=F] | −36 |
| O=C(O)C=CCCCCO [n=3, R=H, Rn=H, R1=H] | 14 |
| O=C(O)C=CCCCCCO [n=4, R=H, Rn=H, R1=H] | 0 |
| O=C(O)/C=C/CCCCCCCCCCO [n=9, R=H, Rn=H, R1=H, 13-hydroxy-tridec-2t-enoic acid] | −22 |
| O=C(O)C(F)=CCCCCCCCCCCCO [n=10, R=H, Rn=H, R1=F, 14-hydroxy-tetradec-2-fluoro-2-enoic acid] | −19 |
| O=C(O)/C=C/CCCCCCCCCCCO [n=10, R=H, Rn=H, R1=H, 14-hydroxy-tetradec-2t-enoic acid] | −34 |
| O=C(O)C(F)=CCCCCCCCCCCCCCCO [n=13, R=H, Rn=H, R1=F, 17-hydroxy-heptadec-2-fluoro-2-enoic acid] | −9 |
| O=C(O)/C=C/CCCCCCCCCCCCCCO [n=13, R=H, Rn=H, R1=H, 17-hydroxy-heptadec-2t-enoic acid] | −10 |
